PubChem BioAssay (NCI)
≈ marks a conversion by molar mass, not a printed value.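 The compound was tested at five concentrations on cells cultured in 96-well plates, with a 48-hour exposure period. At the GI50, growth is halved. At the TGI there is no net growth.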 Peptide text beside a SMILES is read from it.

What was measured:
Experiment in all cases: NCI anticancer screen, dose series, 48 h
[1] = system: ACHN renal
[2] = system: CAKI-1 renal
[3] = system: EKVX NSCLC
[4] = system: HCC-2998 colon
[5] = system: HCT-15 colon
[6] = system: HS 578T breast
[7] = system: HT29 colon
[8] = system: IGROV1 ovarian
[9] = system: K-562 leukemia
[10] = system: KM12 colon
[11] = system: LOX IMVI melanoma
[12] = system: MDA-MB-231 breast
[13] = system: NCI-H226 lung
[14] = system: NCI-H23 lung
[15] = system: NCI-H460 lung
[16] = system: NCI-H522 lung
[17] = system: NCI/ADR-RES ovarian
[18] = system: OVCAR-3 ovarian
[19] = system: OVCAR-5 ovarian
[20] = system: PC-3 prostate
[21] = system: RXF 393 renal
[22] = system: SF-268 CNS
[23] = system: SK-MEL-2 melanoma
[24] = system: SK-MEL-5 melanoma
[25] = system: SK-OV-3 ovarian
[26] = system: SNB-19 CNS
[27] = system: SR leukemia
[28] = system: SW-620 colon
[29] = system: T-47D breast
[30] = system: TK-10 renal
[31] = system: U251 CNS
[32] = system: UACC-257 melanoma
[33] = system: UACC-62 melanoma
[34] = system: UO-31 renal
[35] = system: 786-0 renal
[36] = system: A549 NSCLC
[37] = system: BT-549 breast
[38] = system: CCRF-CEM leukemia
[39] = system: COLO 205 colon
[40] = system: HL-60(TB) leukemia
[41] = system: HOP-62 NSCLC
[42] = system: HOP-92 NSCLC
[43] = system: M14 melanoma
[44] = system: MALME-3M melanoma
[45] = system: MCF7 breast
[46] = system: MDA-MB-435
[47] = system: MOLT-4 leukemia
[48] = system: OVCAR-4 ovarian
[49] = system: OVCAR-8 ovarian
[50] = system: RPMI-8226 leukemia
[51] = system: SF-295 CNS
[52] = system: SK-MEL-28 melanoma
[53] = system: SN12C renal
[54] = system: SNB-75 CNS

Oc1c(N2CCOCC2)cc(-c2cc(N3CCOCC3)c(O)c3ccccc23)c2ccccc12
TGI [1]: 11 µM
TGI [2]: 13.8 µM
TGI [3]: 41.6 µM
TGI [4]: 5.78 µM
TGI [5]: 6.38 µM
TGI [6]: > 100 µM
TGI [7]: 5.26 µM
TGI [8]: 7.16 µM
TGI [9]: 6.64 µM
TGI [10]: 25.4 µM
TGI [11]: 7.09 µM
TGI [12]: > 100 µM
TGI [13]: 59.8 µM
TGI [14]: 6.13 µM
TGI [15]: 11.4 µM
TGI [16]: 4.89 µM
TGI [17]: 15.6 µM
TGI [18]: 15.6 µM
TGI [19]: 7.25 µM
TGI [20]: 14.6 µM
TGI [21]: 6.03 µM
TGI [22]: 17.8 µM
TGI [23]: 8.29 µM
TGI [24]: 3.35 µM
TGI [25]: 51.9 µM
TGI [26]: 16.6 µM
TGI [27]: 2.29 µM
TGI [28]: 6.34 µM
TGI [29]: 62.1 µM
TGI [30]: 28.9 µM
TGI [31]: 3.34 µM
TGI [32]: 5.11 µM
TGI [33]: 5.73 µM
TGI [34]: 4.66 µM

CC1(C)C[C@@H]2C1CCC1(C)CC2(O)CC[C@H]1O (stereo not given in full)
TGI [35]: > 100 µM
TGI [36]: > 100 µM
TGI [1]: > 100 µM
TGI [37]: > 100 µM
TGI [2]: > 100 µM
TGI [38]: > 100 µM
TGI [39]: > 100 µM
TGI [3]: > 100 µM
TGI [5]: > 100 µM
TGI [40]: > 100 µM
TGI [41]: > 100 µM
TGI [42]: > 100 µM
TGI [6]: > 100 µM
TGI [7]: > 100 µM
TGI [8]: > 100 µM
TGI [9]: > 100 µM
TGI [10]: > 100 µM
TGI [11]: > 100 µM
TGI [43]: > 100 µM
TGI [44]: > 100 µM
TGI [45]: > 100 µM
TGI [46]: > 100 µM
TGI [47]: > 100 µM
TGI [13]: > 100 µM
TGI [14]: > 100 µM
TGI [15]: > 100 µM
TGI [16]: > 100 µM
TGI [17]: > 100 µM
TGI [18]: > 100 µM
TGI [48]: > 100 µM
TGI [19]: > 100 µM
TGI [49]: > 100 µM
TGI [20]: > 100 µM
TGI [50]: > 100 µM
TGI [22]: > 100 µM
TGI [51]: > 100 µM
TGI [23]: > 100 µM
TGI [52]: > 100 µM
TGI [24]: > 100 µM
TGI [25]: > 100 µM
TGI [53]: > 100 µM
TGI [26]: > 100 µM
TGI [54]: > 100 µM
TGI [27]: > 100 µM
TGI [28]: > 100 µM
TGI [29]: > 100 µM
TGI [30]: > 100 µM
TGI [31]: > 100 µM
TGI [32]: > 100 µM
TGI [33]: > 100 µM
TGI [34]: > 100 µM

CCOC(=O)CNC(=O)C(Cc1ccccc1)NC(=O)C(N)CC(=O)O (stereo not drawn) (H-Asp-Phe-Gly-OEt; configuration not given here)
GI50 [38]: 85.2 mg/L (≈ 233 µM)
GI50 [6]: 9.31 mg/L (≈ 25.5 µM)
GI50 [10]: 0.194 mg/L (≈ 0.532 µM)
GI50 [47]: 23.7 mg/L (≈ 64.9 µM)
GI50 [33]: 30.3 mg/L (≈ 82.9 µM)
